In article PMC7395048 (Archives of Toxicology, 2020):
Entries after “also recorded” stand apart in the source; their conditions may differ. Marks after values point to notes of the source that are not given here.

Key:
hERG channels = conditions: ref Eap et al. [2007], cited from earlier work
hiPSC-CM = hiPSC-CM MEA assay (FPDc, extracellular field potential); conditions: for cytotoxicity at the test concentrations: up to 30 µM, data not shown
Procedure: Briefly, each well of the MEA chips was precoated with 50 μg/ml fibronectin for 3 h in the incubator at 37 °C with 5% CO2. The fibronectin coating solution was aspirated before seeding. Cells were thawed in the incubator at 37 °C for exactly 4 min and carefully transferred to a 50-ml tube. The original vial was rinsed with serum free Pluricyte® Cardiomyocyte Medium and added drop-wise to the tube containing the cardiomyocytes. […] Then, the supernatant was removed and medium was drop-wisely added to reach the aimed concentration of cells in the suspension (10^4 cells/μl). 2-μl cell suspension per well was placed on the six-well MEA chips in a density of 10^4 cells/μl. After 3-h incubation (37 °C, 5% CO2), 200 μl of medium was filled into each well of the MEA chips which were subsequently incubated at 37 °C with 5% CO2 and refreshed with medium every 2 days.
At 7–8 days after seeding, MEA chips were placed on the headstage of a MEA2100-system (MCS GmbH) integrated with the chamber providing a stable atmosphere (37 °C, 5% CO2) to record the extracellular field potential (Fig. 2) of spontaneous beating hiPSC-CM. After an equilibration time of 20 min, half of the medium (100 μl) in each well was replaced by culture medium containing 0.2% (v/v) DMSO to reach a final concentration of 0.1% (v/v) DMSO, which was used as baseline condition. […] At each concentration, the extracellular field potential was recorded for 1 min after 10-min exposure. […] Same test concentrations were chosen for EDDP and EMDP, which enables definition of concentration-dependent curves for EDDP and EMDP that allow potency comparison.
One well of 0.1% (v/v) DMSO on each MEA chip was used as the vehicle control well and run at the same time as the compound exposure wells to correct for time- and DMSO-dependent effects on the field potential. A detailed exposure scheme can be found in Fig. S1. Data were collected using Cardio 2D software (MCS GmbH) with a sample frequency of 10 kHz and a 0.1–3.5-kHz band-pass filter.
Field potential duration (FPD) was defined as duration between the beginning of the sodium spike and the repolarizing peak (Fig. 2). RR-intervals were defined as the duration between two depolarization peaks (Fig. 2). The FPD and RR-interval were measured as the average of at least 30 beats from 1-min recording at each concentration of the test compound.
In this formula, the FPD and RR-interval are expressed in seconds. Data were collected from at least three independent experiments (4–8 wells, 26–38 electrodes), using a new vial of cells (all from the same batch) at each independent experiment. […] The concentrations inducing irregularities in the field potential trace (Fig. S2) were also noted.
The concentration–response curves were plotted with GraphPad Prism 5.0 using the four-parameters logistic fit (GraphPad Software Inc., San Diego, USA). Each data point is presented as the mean value of at least three independent experiments ± standard deviation (SD). Statistical significance of the changes in response of cells exposed to the compound compared to the solvent control was analyzed by one-way ANOVA followed by post Dunnett test. Values of p < 0.05 were regarded as statistically significant (p < 0.05: *, p < 0.01: ** and p < 0.001: ***). Statistical analysis was performed by GraphPad Prism 5.0 (GraphPad Software Inc.).

[1] = cited from earlier work
[2] = In vitro incubations with pooled human liver microsomes; conditions: EDDP as substrate, 1000 µM
Procedure: The test concentrations were chosen to enable adequate analysis of Michaelis–Menten kinetics. After one-min pre-incubation of this solution at 37 °C, the reactions were initiated by addition of human liver microsomes giving a final concentration of 0.5 mg/ml microsomal protein and incubations were performed in a shaking water bath at 37 °C for 40 min. Control incubations were performed in the absence of NADPH which was replaced with Tris–HCl. The reactions were terminated by addition of 40-µl ice-cold acetonitrile. Samples were kept on ice for at least 20 min and then centrifuged at 18,000g for 5 min at 4 °C to precipitate microsomal proteins.
Vmax and Km were obtained by fitting the data to Eq. (2) in GraphPad Prism 5.0 (GraphPad Software Inc.). Data were collected from three independent experiments and each data point is presented as the mean value ± SD.

[3] = set-up: method as in Hsu et al. ([2013]); conditions: subjects on methadone maintenance treatment; ref Hsu et al. ([2013]); cited from earlier work
[4] = RED assay, unbound fraction in pooled human plasma
Procedure: (§1) Then, 25 µl of post-dialysis samples were collected from the sample chambers and transferred to test sample tubes followed by an addition of 25 µl PBS. Equal volumes of post-dialysis samples collected from the buffer chamber which were then mixed with 25 µl of in vitro medium or human plasma in the buffer sample tubes. Then, both samples were precipitated using 300-µl cold acetonitrile/water (90/10 v/v). The samples were put on ice for 30 min followed by centrifugation for 30 min at 15,000g. Then, supernatants were collected for UPLC–PDA analysis.
(§2) The measurements were performed in triplicate in two independent experiments.

[5] = RED assay, unbound fraction in in vitro hiPSC-CM MEA assay medium; conditions: in vitro hiPSC-CM MEA assay medium (serum-free)
Procedure: as §1, §2

[6] = ref Foster [2001]; cited from earlier work

Structure (SMILES) | hERG channel inhibition (hERG channels) | concentration shortening the FPDc by 20% (BMC20 for decreasing FPDc) (hiPSC-CM; cumulative addition, 10-min exposure) | concentration causing beating arrest in certain wells (hiPSC-CM; in certain wells) | arrhythmia-type waveforms / FPDc prolongation (hiPSC-CM; test range 0.1-30 µM) | cytotoxicity at the test concentrations (hiPSC-CM) | in vivo total plasma concentration of EMDP ([1]; after clinical relevant dosing of methadone, ref Alburges et al. [1996]) | hERG channel block (hERG channels; Katchman et al. [2002]) | EMDP formation from EDDP [2] | BPr (blood/plasma ratio) [3] | fraction unbound at 5 h, 150 µM [4] | BMC20, prolongation of FPDc (hiPSC-CM; 20% change in FPDc over control, cumulative addition, 10-min exposure) | unbound BMC20 (hiPSC-CM; BMC20 corrected for unbound fraction in medium) | concentration at which cessation of beating was observed (hiPSC-CM; human, 10 min) | concentration from which arrhythmia-like waveforms were induced (hiPSC-CM; tested up to 30 µM) | free blood Cmax of EDDP ([1]; oral methadone 57.5 mg/day, estimated from reported EDDP data, ref De Vos et al. ([1995])) | fraction unbound at 5 h, 150 µM [5] | recovery of EDDP in feces [6]
CCC1=NC(C)CC1(c1ccccc1)c1ccccc1 (stereo not drawn) [EMDP, 2-ethyl-5-methyl-3,3-diphenylpyrroline] | not inhibit hERG channels | 3.8 µM | 30 µM | without inducing arrhythmia-type waveforms; also recorded: Neither FPDc prolongation nor arrhythmia-type waveforms were observed | no cytotoxicity was observed | less than 0.04 µM | – | – | – | – | – | – | – | – | – | – | –
CC=C1N(C)C(C)CC1(c1ccccc1)c1ccccc1 (stereo not drawn) [EDDP, 2-ethylidene-1,5-dimethyl-3,3-diphenylpyrrolidine] | – | – | – | – | no cytotoxicity was observed | – | weaker hERG channel blocker compared to methadone | formation of EMDP was neither detectable | 0.87^c | 0.3 ± 0.015 | 2.3 µM | 2.07 µM | 30 µM | ≥ 3 µM | 0.05 µM | 0.9 ± 0.072 | up to 39%
